Data reported in patent US20250144077A1, “DOSAGE REGIMEN FOR THROMBOPOIETIN RECEPTOR AGONIST” (JIANGSU HENGRUI PHARMACEUTICALS CO., LTD., priority 2022, published 2025).
Where two headings read alike, the source gives them in different places.

Tests used:
platelet counts = assay: PD: platelet counts after administration compared to baseline; format: in vivo, human; details: all the groups; single 7.5 mg oral dose
Description: (§1) All the subjects in each group underwent PK, PD, and safety index collection following the administration of the study drug on D1 according to the trial process chart, and comparative analysis was then performed between groups.

[1] = Safety and adverse events after single 7.5 mg oral dose (CTCAE5.0 grading); format: in vivo, human
Description: as §1
(§2) Prior to the day-1 administration (D-1), the subjects were required to fast for 10 h or more, though water intake was not prohibited. The following morning (D1), the subjects orally took, on an empty stomach, a 7.5 mg dose of herombopag diethanolamine tablets (comprised of one 2.5 mg tablet and one 5 mg tablet) with about 240 mL of warm water. Water intake was prohibited 1 h before and after the administration. The subjects had lunch about 4 h after the administration and had dinner about 10 h after the administration. The subjects were advised to remain seated within the 2 h after the administration and to avoid strenuous exercise and prolonged bed rest.
In this study, a total of 24 subjects were included, and all of them were included in a safety analysis set.
In this study, all drug-related AEs were graded according to CTCAE5.0. […] The adverse reactions mainly occurred in the hepatic impairment groups, and the incidence of adverse reactions in the moderate hepatic impairment group was relatively high, which may be attributed to the fact that these subjects had pre-existing liver diseases of varying degrees of severity and most of them already had abnormal baseline laboratory test results. These subjects recovered from all the adverse events without intervention.

[2] = Single-dose, open-label pharmacokinetics of herombopag in subjects with normal liver function, mild and moderate hepatic impairments; format: in vivo, human; details: for AUC0-t GLSM Ratio / AUC0-∞ GLSM Ratio / Cmax GLSM Ratio: ANOVA
Description: Example 1: Study of Pharmacokinetics and Safety of Trial Drug in Subjects with Mild Hepatic Impairments (Child-Pugh: Grade A), Moderate Hepatic Impairments (Child-Pugh: Grade B), and Normal Liver Function
Trial drug: tablets of herombopag diethanolamine salt, produced and provided by Jiangsu Hengrui, strengths: 2.5 mg/tablet and 5 mg/tablet.
This study is a single-dose, open-label trial designed to evaluate the pharmacokinetics of herombopag in subjects with normal liver function, mild hepatic impairments, and moderate hepatic impairments.
The severity of the hepatic functional impairments in the subjects was assessed using the Child-Pugh score (mild: grade A, a score of 5 or 6; moderate: grade B, a score of 7-9).
as §1
PK blood sampling time points: Venous blood samples of about 4 mL were collected from each subject within the 1 h prior to administration and at 0.5, 1, 2, 4, 6, 7, 8, 10, 12, 24, 48, 72, 96, and 120 h after administration. Blood sampling time windows: within the 60 min prior to administration; ±2 min for the 0.5 h-2 h after administration; ±5 min for the 4 h-12 h; ±15 min for the 24 h-120 h after administration.
as §2
Pharmacokinetic parameters of herombopag, including Tmax, Cmax, AUC0-t, AUC0-∞, t1/2, V/F, and CL/F, were calculated according to the actual sampling time points using a non-compartmental model (NCA) on Phoenix WinNonlin 8.1.

plasma protein = assay: Plasma protein binding rate of herombopag in subjects with hepatic impairments; format: in vitro ADME, human
[3] = moderate hepatic impairment group, 5 subjects
[4] = Moderate vs. Normal (moderate/normal)
[5] = mild hepatic impairments compared with normal liver function
[6] = moderate hepatic impairments compared with normal liver function
[7] = single 7.5 mg oral dose, fasted, mild hepatic impairment (n = 8), GeoMean (% CVb)
[8] = single 7.5 mg oral dose, fasted, moderate hepatic impairment (n = 8), GeoMean (% CVb)
[9] = single 7.5 mg oral dose, fasted, normal liver function group (n = 8), GeoMean (% CVb)

CC1=NN(c2ccc3c(c2)CCCC3)C(=O)/C1=N\Nc1cccc(-c2ccc(C(=O)O)o2)c1O [herombopag, (Z)-5-(2-hydroxy-3-(2-(3-methyl-5-oxo-1-(5,6,7,8-tetrahydronaphthalen-2-yl)-1H-pyrazol-4(5H)-ylidene)hydrazino)phenyl)furan-2-carboxylic acid]
platelet counts after administration compared to the baseline (platelet counts): trend towards higher platelet counts compared to the baseline | incidence of AEs related to the study drug ([1]; all 24 subjects, 13 subjects, 25 events): 54.2% | incidence of adverse events ([1]; all 24 subjects, 15 subjects, 29 events): 62.5% | subjects with grade 1 drug-related AEs (CTCAE5.0) ([1]; all subjects, nine subjects): 37.5% | subjects with grade 2 drug-related AEs (CTCAE5.0) ([1]; all subjects, seven subjects): 29.2% | subjects with grade 2 drug-related AEs (CTCAE5.0) ([1]; mild hepatic impairment group, 1 subject, decreased neutrophil count): 12.5% | subjects with grade 1 drug-related AEs (CTCAE5.0) ([1]; mild hepatic impairment group, 3 subjects): 37.5% | incidence of AEs related to the study drug ([1]; mild hepatic impairment group, 4 subjects, 5 events): 50.0% | subjects with grade 3 drug-related AEs (CTCAE5.0) ([1]; moderate hepatic impairment group, 1 subject): 12.5% | subjects with grade 1 drug-related AEs (CTCAE5.0) [1, 3]: 62.5% | subjects with grade 2 drug-related AEs (CTCAE5.0) [1, 3]: 62.5% | incidence of AEs related to the study drug ([1]; moderate hepatic impairment group, 7 subjects, 18 events): 87.5% | subjects with grade 1 drug-related AEs (CTCAE5.0) ([1]; normal liver function group, 1 subject): 25.0% | subjects with grade 2 drug-related AEs (CTCAE5.0) ([1]; normal liver function group, 1 subject, hypertriglyceridemia): 12.5% | incidence of AEs related to the study drug ([1]; normal liver function group, 2 subjects, 2 events): 25.0% | safety and tolerability ([1]; single oral dose, normal liver function, mild and moderate hepatic impairments): safe and well tolerated | AUC0-t GLSM Ratio ([2]; Mild vs. Normal (mild/normal)): 121.73% | AUC0-∞ GLSM Ratio ([2]; Mild vs. Normal (mild/normal)): 120.16% | Cmax GLSM Ratio ([2]; Mild vs. Normal (mild/normal)): 170.39% | AUC0-t GLSM Ratio [2, 4]: 171.21% | AUC0-∞ GLSM Ratio [2, 4]: 173.06% | Cmax GLSM Ratio [2, 4]: 204.72% | median time to peak, hepatic impairment groups versus normal liver function group ([2]; human, in vivo): smaller median time to peak | AUC(0-t) ([2]; human, plasma, oral, 7.5 mg, geometric least squares mean, mild hepatic impairment group, n 8, read-out: AUC0-t GLSM): 1.06 µg·h/mL | AUC(0-inf) ([2]; human, plasma, oral, 7.5 mg, geometric least squares mean, mild hepatic impairment group, n 8, read-out: AUC0-∞ GLSM): 1.12 µg·h/mL | Cmax ([2]; human, plasma, oral, 7.5 mg, geometric least squares mean, mild hepatic impairment group, n 8, read-out: Cmax GLSM): 0.0626 µg/mL | AUC(0-t) ([2]; human, plasma, oral, 7.5 mg, geometric least squares mean, moderate hepatic impairment group, n 8, read-out: AUC0-t GLSM): 1.5 µg·h/mL | AUC(0-inf) ([2]; human, plasma, oral, 7.5 mg, geometric least squares mean, moderate hepatic impairment group, n 8, read-out: AUC0-∞ GLSM): 1.61 µg·h/mL | Cmax ([2]; human, plasma, oral, 7.5 mg, geometric least squares mean, moderate hepatic impairment group, n 8, read-out: Cmax GLSM): 0.0753 µg/mL | AUC(0-t) ([2]; human, plasma, oral, 7.5 mg, geometric least squares mean, normal liver function group, n 8, read-out: AUC0-t GLSM): 0.874 µg·h/mL | AUC(0-inf) ([2]; human, plasma, oral, 7.5 mg, geometric least squares mean, normal liver function group, n 8, read-out: AUC0-∞ GLSM): 0.929 µg·h/mL | Cmax ([2]; human, plasma, oral, 7.5 mg, geometric least squares mean, normal liver function group, n 8, read-out: Cmax GLSM): 0.0368 µg/mL | half-life ([2]; human, plasma, po, 7.5 mg, single 7.5 mg oral dose, empty stomach, mild hepatic impairments (Child-Pugh: grade A), read-out: arithmetic mean of t1/2 (converted)): 32.3 h | AUC(0-t) ([2]; human, plasma, po, 7.5 mg, single 7.5 mg oral dose, empty stomach, mild hepatic impairments (Child-Pugh: grade A), read-out: geometric mean of AUC0-t): 1.06 µg·h/mL | AUC(0-inf) ([2]; human, plasma, po, 7.5 mg, single 7.5 mg oral dose, empty stomach, mild hepatic impairments (Child-Pugh: grade A), read-out: geometric mean of AUC0-∞): 1.12 µg·h/mL | Tmax ([2]; human, plasma, po, 7.5 mg, single 7.5 mg oral dose, empty stomach, mild hepatic impairments (Child-Pugh: grade A), read-out: median of Tmax): 2 h | half-life ([2]; human, plasma, po, 7.5 mg, single 7.5 mg oral dose, empty stomach, moderate hepatic impairments (Child-Pugh: grade B), read-out: arithmetic mean of t1/2 (converted)): 36.3 h | AUC(0-t) ([2]; human, plasma, po, 7.5 mg, single 7.5 mg oral dose, empty stomach, moderate hepatic impairments (Child-Pugh: grade B), read-out: geometric mean of AUC0-t): 1.58 µg·h/mL | AUC(0-inf) ([2]; human, plasma, po, 7.5 mg, single 7.5 mg oral dose, empty stomach, moderate hepatic impairments (Child-Pugh: grade B), read-out: geometric mean of AUC0-∞): 1.66 µg·h/mL | Tmax ([2]; human, plasma, po, 7.5 mg, single 7.5 mg oral dose, empty stomach, moderate hepatic impairments (Child-Pugh: grade B), read-out: median of Tmax): 2 h | half-life ([2]; human, plasma, po, 7.5 mg, single 7.5 mg oral dose, empty stomach, normal liver function, read-out: arithmetic mean of t1/2 (converted)): 34.6 h | AUC(0-t) ([2]; human, plasma, po, 7.5 mg, single 7.5 mg oral dose, empty stomach, normal liver function, read-out: geometric mean of AUC0-t): 0.874 µg·h/mL | AUC(0-inf) ([2]; human, plasma, po, 7.5 mg, single 7.5 mg oral dose, empty stomach, normal liver function, read-out: geometric mean of AUC0-∞): 0.929 µg·h/mL | Tmax ([2]; human, plasma, po, 7.5 mg, single 7.5 mg oral dose, empty stomach, normal liver function, read-out: median of Tmax): 8 h | AUC(0-t) ([2]; human, plasma, po, 7.5 mg, single 7.5 mg oral dose, fasted, mild hepatic impairment (n = 8), GeoMean (% CVb), read-out: AUC0-t): 1.06 µg·h/mL | AUC(0-inf) ([2]; human, plasma, po, 7.5 mg, single 7.5 mg oral dose, fasted, mild hepatic impairment (n = 8), GeoMean (% CVb), read-out: AUC0-∞): 1.12 µg·h/mL | Cmax ([2]; human, plasma, po, 7.5 mg, single 7.5 mg oral dose, fasted, mild hepatic impairment (n = 8), GeoMean (% CVb), read-out: Cmax): 0.0624 µg/mL | half-life ([2]; human, plasma, po, 7.5 mg, single 7.5 mg oral dose, fasted, mild hepatic impairment (n = 8), Mean ± SD, read-out: t1/2 (converted)): 32.2 ± 7.28 h | Tmax ([2]; human, plasma, po, 7.5 mg, single 7.5 mg oral dose, fasted, mild hepatic impairment (n = 8), Median (Min-Max), read-out: Tmax): 2 h | AUC(0-t) ([2]; human, plasma, po, 7.5 mg, single 7.5 mg oral dose, fasted, moderate hepatic impairment (n = 8), GeoMean (% CVb), read-out: AUC0-t): 1.58 µg·h/mL | AUC(0-inf) ([2]; human, plasma, po, 7.5 mg, single 7.5 mg oral dose, fasted, moderate hepatic impairment (n = 8), GeoMean (% CVb), read-out: AUC0-∞): 1.66 µg·h/mL | Cmax ([2]; human, plasma, po, 7.5 mg, single 7.5 mg oral dose, fasted, moderate hepatic impairment (n = 8), GeoMean (% CVb), read-out: Cmax): 0.0828 µg/mL | half-life ([2]; human, plasma, po, 7.5 mg, single 7.5 mg oral dose, fasted, moderate hepatic impairment (n = 8), Mean ± SD, read-out: t1/2 (converted)): 36.3 ± 11.9 h | Tmax ([2]; human, plasma, po, 7.5 mg, single 7.5 mg oral dose, fasted, moderate hepatic impairment (n = 8), Median (Min-Max), read-out: Tmax): 2 h | AUC(0-t) ([2]; human, plasma, po, 7.5 mg, single 7.5 mg oral dose, fasted, normal liver function group (n = 8), GeoMean (% CVb), read-out: AUC0-t): 0.874 µg·h/mL | AUC(0-inf) ([2]; human, plasma, po, 7.5 mg, single 7.5 mg oral dose, fasted, normal liver function group (n = 8), GeoMean (% CVb), read-out: AUC0-∞): 0.929 µg·h/mL | Cmax ([2]; human, plasma, po, 7.5 mg, single 7.5 mg oral dose, fasted, normal liver function group (n = 8), GeoMean (% CVb), read-out: Cmax): 0.0368 µg/mL | half-life ([2]; human, plasma, po, 7.5 mg, single 7.5 mg oral dose, fasted, normal liver function group (n = 8), Mean ± SD, read-out: t1/2 (converted)): 34.6 ± 11.9 h | Tmax ([2]; human, plasma, po, 7.5 mg, single 7.5 mg oral dose, fasted, normal liver function group (n = 8), Median (Min-Max), read-out: Tmax): 8 h | AUC0-t increase [2, 5]: 21.73% | AUC0-∞ increase [2, 5]: 20.16% | Cmax increase [2, 5]: 70.39% | AUC0-t increase [2, 6]: 71.21% | AUC0-∞ increase [2, 6]: 73.06% | Cmax increase [2, 6]: 104.72% | half-lives compared between groups ([2]; normal, mild and moderate hepatic impairment groups): substantially identical half-lives | CL/F [2, 7]: 6.72(41.5) L/h | Cmax [2, 7]: 62.6(42.2) ng/mL | V/F [2, 7]: 304(45.6) L | CL/F [2, 8]: 4.66(58.8) L/h | V/F [2, 8]: 233(69.7) L | CL/F [2, 9]: 8.07(101.6) L/h | V/F [2, 9]: 372(60.3) L | effect of hepatic impairments on plasma protein binding rate (plasma protein): did not significantly affect
